The values that follow come from ChEMBL document CHEMBL5370605, “Discovery of Novel Fedratinib-Based HDAC/JAK/BRD4 Triple Inhibitors with Remarkable Antitumor Activity against Triple Negative Breast Cancer” (J Med Chem, 2023).

Broadly, the IC50 is the midpoint of a concentration-inhibition curve. One may read the Tmax as the time from dosing to the highest level.

Molecules are shown by their SMILES.

One series concerns GES1. As to the kind of experiment: Cytotoxicity against human GES1 cells at 1 uM incubated for 48 hrs by MTT assay. In kind it is toxicity, cell-based. The note with it: ges1, 48 h.
Another series deals with T1, Histone deacetylase 8 (Homo sapiens, UniProt Q9BY41).
T1 sequence (Q9BY41 whole entry): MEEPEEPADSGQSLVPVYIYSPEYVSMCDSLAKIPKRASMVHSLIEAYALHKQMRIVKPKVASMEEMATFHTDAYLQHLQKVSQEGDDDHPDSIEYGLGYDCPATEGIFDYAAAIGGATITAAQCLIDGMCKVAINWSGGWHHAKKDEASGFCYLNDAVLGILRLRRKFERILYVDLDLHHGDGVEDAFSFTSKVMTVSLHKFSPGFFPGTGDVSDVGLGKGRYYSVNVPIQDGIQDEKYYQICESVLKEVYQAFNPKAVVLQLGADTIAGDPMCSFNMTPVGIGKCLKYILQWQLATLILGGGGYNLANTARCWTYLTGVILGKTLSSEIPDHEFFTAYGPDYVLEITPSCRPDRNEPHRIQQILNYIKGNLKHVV
Put plainly: Inhibition of HDAC8 (unknown origin) using Boc-Lys-(trifluoroacetyl)-AMC as substrate incubated for 30 mins by fluorescence based analysis.

A short description of series [1]: Bioavailability in ICR (CD-1) mouse at 50 mg/kg, ip measured for 24 hrs by LC-MS/MS analysis. In kind it is ADME, organism-based. The note with it: in vivo, ip, 50 mg/kg, 24 h.
Series [2] concerns the target Proto-oncogene tyrosine-protein kinase receptor Ret (Homo sapiens, UniProt P07949). Put plainly: Inhibition of RET (unknown origin) incubated for 40 mins in presence of ATP by Kinase-glo luminescent assay. For orientation: In Kinase-Glo more light means more ATP remaining.
The target of series [3] is T2, Protein deacetylase HDAC6 (Homo sapiens, UniProt Q9UBN7).
T2 sequence (Q9UBN7 whole entry): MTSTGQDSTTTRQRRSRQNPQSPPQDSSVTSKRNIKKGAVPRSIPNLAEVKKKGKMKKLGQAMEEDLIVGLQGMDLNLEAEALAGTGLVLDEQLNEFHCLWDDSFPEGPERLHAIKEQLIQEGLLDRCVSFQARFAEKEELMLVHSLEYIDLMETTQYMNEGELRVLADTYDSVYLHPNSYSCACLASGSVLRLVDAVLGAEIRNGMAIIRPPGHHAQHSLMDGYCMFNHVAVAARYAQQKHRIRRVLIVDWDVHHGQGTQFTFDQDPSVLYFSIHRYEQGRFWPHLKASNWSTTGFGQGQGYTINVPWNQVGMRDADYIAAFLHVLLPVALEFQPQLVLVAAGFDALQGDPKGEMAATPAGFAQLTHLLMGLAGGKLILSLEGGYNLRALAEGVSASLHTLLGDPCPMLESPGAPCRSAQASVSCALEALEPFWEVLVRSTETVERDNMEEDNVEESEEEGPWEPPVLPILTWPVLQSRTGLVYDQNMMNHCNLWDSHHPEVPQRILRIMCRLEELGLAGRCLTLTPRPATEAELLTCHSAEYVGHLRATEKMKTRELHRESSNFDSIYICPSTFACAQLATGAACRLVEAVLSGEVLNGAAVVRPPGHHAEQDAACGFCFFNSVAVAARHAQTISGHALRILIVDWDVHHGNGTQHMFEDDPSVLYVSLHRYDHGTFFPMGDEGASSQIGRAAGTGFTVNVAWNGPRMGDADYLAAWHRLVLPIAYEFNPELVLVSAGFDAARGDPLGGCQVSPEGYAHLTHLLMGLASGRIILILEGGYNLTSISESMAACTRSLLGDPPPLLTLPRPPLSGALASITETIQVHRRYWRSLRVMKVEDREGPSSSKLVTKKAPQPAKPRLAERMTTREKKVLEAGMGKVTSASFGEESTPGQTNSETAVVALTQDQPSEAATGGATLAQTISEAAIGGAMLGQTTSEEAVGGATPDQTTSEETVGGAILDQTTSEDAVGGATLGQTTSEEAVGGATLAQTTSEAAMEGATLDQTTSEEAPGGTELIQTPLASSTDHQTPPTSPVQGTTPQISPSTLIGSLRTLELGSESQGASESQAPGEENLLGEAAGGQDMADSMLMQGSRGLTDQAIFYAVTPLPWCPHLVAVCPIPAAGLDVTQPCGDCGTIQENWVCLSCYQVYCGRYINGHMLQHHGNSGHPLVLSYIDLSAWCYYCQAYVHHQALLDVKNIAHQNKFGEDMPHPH
Put plainly: Inhibition of HDAC6 (unknown origin) using Boc-Lys(Ac)-AMC as substrate incubated for 30 mins by fluorescence based analysis.

The nature of series [4]: Tmax in ICR (CD-1) mouse at 50 mg/kg, ip measured for 24 hrs by LC-MS/MS analysis. In kind it is ADME, organism-based. Conditions: in vivo.
The target in series [5] is T3, Tyrosine-protein kinase JAK3 (Homo sapiens, UniProt P52333).
T3 sequence (P52333 whole entry): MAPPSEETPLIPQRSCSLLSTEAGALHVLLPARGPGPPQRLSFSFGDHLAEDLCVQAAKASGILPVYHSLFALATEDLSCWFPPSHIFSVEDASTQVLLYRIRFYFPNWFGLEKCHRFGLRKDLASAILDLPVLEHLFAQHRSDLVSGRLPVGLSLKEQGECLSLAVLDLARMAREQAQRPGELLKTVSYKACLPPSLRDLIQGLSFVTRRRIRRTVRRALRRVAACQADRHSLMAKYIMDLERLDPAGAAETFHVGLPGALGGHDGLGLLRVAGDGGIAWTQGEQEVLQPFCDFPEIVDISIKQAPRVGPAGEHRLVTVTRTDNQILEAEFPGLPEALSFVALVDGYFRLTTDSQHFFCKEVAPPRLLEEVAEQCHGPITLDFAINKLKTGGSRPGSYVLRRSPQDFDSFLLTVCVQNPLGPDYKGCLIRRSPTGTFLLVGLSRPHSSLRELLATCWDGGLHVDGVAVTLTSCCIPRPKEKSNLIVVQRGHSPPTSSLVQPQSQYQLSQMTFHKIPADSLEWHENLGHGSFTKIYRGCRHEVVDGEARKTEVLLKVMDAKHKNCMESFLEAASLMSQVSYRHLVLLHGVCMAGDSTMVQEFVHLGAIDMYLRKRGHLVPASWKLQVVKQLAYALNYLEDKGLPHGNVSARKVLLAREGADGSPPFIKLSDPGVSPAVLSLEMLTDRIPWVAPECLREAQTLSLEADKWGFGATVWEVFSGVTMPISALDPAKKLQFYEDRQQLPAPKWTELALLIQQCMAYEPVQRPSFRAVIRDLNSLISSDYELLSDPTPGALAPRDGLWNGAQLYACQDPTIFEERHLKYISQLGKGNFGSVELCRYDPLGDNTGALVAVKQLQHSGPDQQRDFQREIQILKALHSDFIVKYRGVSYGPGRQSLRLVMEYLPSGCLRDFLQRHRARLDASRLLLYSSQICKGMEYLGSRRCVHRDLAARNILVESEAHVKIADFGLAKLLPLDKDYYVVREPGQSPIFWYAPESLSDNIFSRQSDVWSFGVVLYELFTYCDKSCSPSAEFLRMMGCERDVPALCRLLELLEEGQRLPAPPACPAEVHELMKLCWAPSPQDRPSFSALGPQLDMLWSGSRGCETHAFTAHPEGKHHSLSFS
Put plainly: Inhibition of JAK3 (unknown origin) incubated for 40 mins in presence of ATP by Kinase-glo luminescent assay.

Proto-oncogene tyrosine-protein kinase receptor Ret, sequence (P07949 whole entry): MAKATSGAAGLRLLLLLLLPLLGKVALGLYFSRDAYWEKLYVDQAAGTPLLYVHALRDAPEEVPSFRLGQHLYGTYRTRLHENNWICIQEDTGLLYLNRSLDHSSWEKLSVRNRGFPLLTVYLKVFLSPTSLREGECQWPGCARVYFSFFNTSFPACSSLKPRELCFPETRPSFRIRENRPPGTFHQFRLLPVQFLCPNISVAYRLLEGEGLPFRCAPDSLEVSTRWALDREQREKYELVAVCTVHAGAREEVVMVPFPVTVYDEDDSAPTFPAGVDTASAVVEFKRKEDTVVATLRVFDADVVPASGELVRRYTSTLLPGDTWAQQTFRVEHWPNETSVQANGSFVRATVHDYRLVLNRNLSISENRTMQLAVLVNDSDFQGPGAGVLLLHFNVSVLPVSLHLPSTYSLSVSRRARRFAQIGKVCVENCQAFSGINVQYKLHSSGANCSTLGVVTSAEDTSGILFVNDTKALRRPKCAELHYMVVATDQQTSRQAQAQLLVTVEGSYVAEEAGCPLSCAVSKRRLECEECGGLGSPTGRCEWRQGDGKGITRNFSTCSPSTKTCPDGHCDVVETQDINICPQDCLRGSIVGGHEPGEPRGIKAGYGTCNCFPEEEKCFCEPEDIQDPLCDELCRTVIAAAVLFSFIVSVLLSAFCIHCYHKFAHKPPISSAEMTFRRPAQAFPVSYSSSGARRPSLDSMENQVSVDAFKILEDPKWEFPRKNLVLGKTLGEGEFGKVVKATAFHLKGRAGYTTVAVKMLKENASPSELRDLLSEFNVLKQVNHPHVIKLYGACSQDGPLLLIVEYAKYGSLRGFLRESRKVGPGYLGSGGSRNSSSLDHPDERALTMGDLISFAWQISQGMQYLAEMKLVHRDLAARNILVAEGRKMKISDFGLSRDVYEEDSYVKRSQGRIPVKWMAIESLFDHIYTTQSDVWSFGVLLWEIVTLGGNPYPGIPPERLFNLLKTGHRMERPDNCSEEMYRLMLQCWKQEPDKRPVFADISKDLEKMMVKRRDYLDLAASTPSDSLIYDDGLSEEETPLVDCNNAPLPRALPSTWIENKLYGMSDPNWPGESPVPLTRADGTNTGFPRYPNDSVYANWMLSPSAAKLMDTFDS

Consider `Cc1cnc(Nc2ccc(OCCN3CCCC3)cc2)nc1Nc1ccc(C(=O)NO)cc1`, for which the Activity result in the series on GES1 is “Non-Toxic”. In addition, the 50% inhibitory concentration (IC50) worked out at 160 nM on Histone deacetylase 8, 47 nM in series [2], 270 nM in series [3] and 91 nM in series [5]. Besides, the F in series [1] turned out to be 151%. In addition, in series [4], the Tmax came out at 11.4 min.
